For the experiment, the target named is Fc-fused MET (His-/hFc-tagged human MET ectodomain) (Homo sapiens, UniProt P08581). As to the kind of experiment: SPR binding kinetics of selected macrocyclic peptides to Fc-fused MET. The conditions noted are these: for kd: SPR conditions as E1; for kon: pH 7.4, read-out: ka.

Each structure is given as a SMILES string. Where a SMILES comes first, the peptide text is derived from it. Bridges are numbered along the chain shown (N, C = ends).

Sequence of Fc-fused MET (His-/hFc-tagged human MET ectodomain) (P08581 25-932 limits assumed): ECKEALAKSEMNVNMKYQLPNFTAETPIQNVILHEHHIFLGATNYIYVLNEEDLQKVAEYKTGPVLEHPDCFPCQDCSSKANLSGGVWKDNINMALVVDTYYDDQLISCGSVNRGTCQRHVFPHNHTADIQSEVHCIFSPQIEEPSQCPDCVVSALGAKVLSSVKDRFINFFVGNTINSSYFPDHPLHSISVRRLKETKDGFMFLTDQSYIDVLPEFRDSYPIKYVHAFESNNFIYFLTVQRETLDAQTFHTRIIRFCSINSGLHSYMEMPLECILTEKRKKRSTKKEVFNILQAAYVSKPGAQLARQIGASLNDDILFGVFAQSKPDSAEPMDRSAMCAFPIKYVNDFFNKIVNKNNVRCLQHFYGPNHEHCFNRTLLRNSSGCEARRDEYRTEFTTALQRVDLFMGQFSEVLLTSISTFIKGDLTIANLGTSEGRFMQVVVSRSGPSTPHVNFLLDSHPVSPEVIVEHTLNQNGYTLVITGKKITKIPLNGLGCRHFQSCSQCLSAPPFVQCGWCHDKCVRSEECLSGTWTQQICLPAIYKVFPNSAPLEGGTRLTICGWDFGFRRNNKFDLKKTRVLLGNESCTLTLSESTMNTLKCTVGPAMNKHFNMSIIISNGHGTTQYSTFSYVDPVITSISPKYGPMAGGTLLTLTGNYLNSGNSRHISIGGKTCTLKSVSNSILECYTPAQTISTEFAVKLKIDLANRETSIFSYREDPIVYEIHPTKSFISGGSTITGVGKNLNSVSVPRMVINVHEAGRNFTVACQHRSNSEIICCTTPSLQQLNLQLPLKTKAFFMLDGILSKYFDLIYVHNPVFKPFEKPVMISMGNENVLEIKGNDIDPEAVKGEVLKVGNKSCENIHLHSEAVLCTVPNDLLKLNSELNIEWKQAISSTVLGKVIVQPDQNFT
Procedure: The binding kinetic constants (ka and kd) and dissociation constant (KD) of each macrocyclic peptide were determined by surface plasmon resonance, SPR (Table 1, Figure S8).
Binding kinetics analysis of peptides by SPR
The binding affinities of selected peptides targeting Fc-fused MET were analyzed by SPR using a Biacore
8K instrument (Cytiva) at 25 °C. The composition of the running buffer was HBS EP+ buffer (10 mM
HEPES pH 7.4, 150 mM NaCl, 3 mM EDTA, and 0.05% (v/v) Surfactant P20) containing 0.1% DMSO.
The target protein, Fc-fused MET, was immobilized on a Biacore sensor chip ProteinG (Cytiva) to 1,500–
2,000 response units. The kinetic constants were determined by a single-cycle kinetics analysis by injecting
five different concentrations (two-fold dilution series) of each peptide at the flow rate of 30 μL min–1.
Binding sensorgrams were fitted using the standard 1:1 interaction model and analyzed using Biacore™
Insight Software (Figure S8) .

`CC(C)C[C@@H]1NC(=O)[C@H](CO)NC(=O)[C@H](Cc2ccccc2)NC(=O)[C@H](Cc2ccc(O)cc2)NC(=O)[C@H](Cc2c[nH]c3ccccc23)NC(=O)[C@H](CCCCN)NC(=O)[C@H](CCCCN)NC(=O)[C@H](CO)NC(=O)[C@H](CC(=O)O)NC(=O)[C@H](Cc2ccc(O)cc2)NC(=O)[C@H](CCC(=O)O)NC(=O)[C@H](Cc2c[nH]cn2)NC(=O)[C@H](Cc2c[nH]c3ccccc23)NC(=O)[C@H](C(C)C)NC(=O)[C@H](CC(C)C)NC(=O)[C@H](Cc2ccc(O)cc2)NC(=O)CSC[C@@H](C(=O)NCC(N)=O)NC1=O` [12-5] ({CH2CO}-YLVWHEYDSKKWYFSLCG-NH2; thioether N-17): the kd was determined as 0.002 s⁻¹ and the kon was 130000 M⁻¹ s⁻¹.
The corresponding values for `CC(C)C[C@@H]1NC(=O)[C@H](CCCCN)NC(=O)CNC(=O)[C@H](Cc2ccccc2)NC(=O)CNC(=O)[C@H](Cc2ccc(O)cc2)NC(=O)[C@H](C(C)C)NC(=O)[C@H](Cc2c[nH]c3ccccc23)NC(=O)[C@H](Cc2ccc(O)cc2)NC(=O)CSC[C@@H](C(=O)NCC(N)=O)NC(=O)[C@H](Cc2ccccc2)NC(=O)[C@H](C)NC(=O)[C@H](CCCNC(=N)N)NC(=O)[C@H](Cc2c[nH]c3ccccc23)NC(=O)[C@H](CC(=O)O)NC(=O)[C@H](CC(N)=O)NC(=O)[C@H](CC(N)=O)NC1=O` [14-1] ({CH2CO}-YWVYGFGKLNNDWRAFCG-NH2; thioether N-17) are 0.000739 s⁻¹ and 257000 M⁻¹ s⁻¹.
The matching figures for `CC[C@H](C)[C@@H]1NC(=O)[C@H](C(C)C)NC(=O)[C@H](CO)NC(=O)[C@H](CC(=O)O)NC(=O)[C@H](C(C)C)NC(=O)[C@H](CC(=O)O)NC(=O)[C@H](CCCCN)NC(=O)CNC(=O)[C@H](CO)NC(=O)[C@H](Cc2c[nH]c3ccccc23)NC(=O)[C@H](CO)NC(=O)[C@H](Cc2ccc(O)cc2)NC(=O)[C@H](Cc2ccc(O)cc2)NC(=O)CSC[C@@H](C(=O)NCC(N)=O)NC(=O)[C@H](CC(N)=O)NC(=O)[C@H](CC(N)=O)NC(=O)[C@H](Cc2c[nH]c3ccccc23)NC1=O` [14-2] ({CH2CO}-YYSWSGKDVDSVIWNNCG-NH2; thioether N-17): 0.00182 s⁻¹ and 464000 M⁻¹ s⁻¹.
The corresponding values for `CC(C)C[C@@H]1NC(=O)[C@H](CO)NC(=O)[C@H](Cc2c[nH]c3ccccc23)NC(=O)[C@H](CC(N)=O)NC(=O)[C@H](CCCCN)NC(=O)[C@H](CO)NC(=O)[C@H](CC(=O)O)NC(=O)[C@H](Cc2ccccc2)NC(=O)[C@H](CCC(=O)O)NC(=O)[C@H](CO)NC(=O)[C@H](Cc2c[nH]c3ccccc23)NC(=O)[C@H](CO)NC(=O)[C@H](CC(C)C)NC(=O)[C@H](Cc2ccc(O)cc2)NC(=O)CSC[C@@H](C(=O)NCC(N)=O)NC(=O)[C@H](Cc2ccc(O)cc2)NC(=O)[C@H](C)NC1=O` [14-3] ({CH2CO}-YLSWSEFDSKNWSLAYCG-NH2; thioether N-17) are 0.00297 s⁻¹ and 84900 M⁻¹ s⁻¹.
As for `CC(C)[C@@H]1NC(=O)[C@H](C)NC(=O)[C@H](CC(=O)O)NC(=O)[C@H](Cc2ccccc2)NC(=O)[C@H](CC(=O)O)NC(=O)[C@H](CCCNC(=N)N)NC(=O)CNC(=O)[C@H]([C@@H](C)O)NC(=O)[C@H](Cc2c[nH]c3ccccc23)NC(=O)[C@H](CO)NC(=O)[C@H](Cc2ccc(O)cc2)NC(=O)[C@H](Cc2ccc(O)cc2)NC(=O)CSC[C@@H](C(=O)NCC(N)=O)NC(=O)[C@H](CCCCN)NC(=O)[C@H](CC(N)=O)NC(=O)[C@H](Cc2c[nH]c3ccccc23)NC(=O)[C@H](CCCCN)NC1=O` [14-4] ({CH2CO}-YYSWTGRDFDAVKWNKCG-NH2; thioether N-17), the kd is 0.00198 s⁻¹ and the kon was 798000 M⁻¹ s⁻¹.

For the origin of these results see publication PMC11950852, “Diversity Scale of Library Matters: Impact of mRNA Library Diversity Scales on the Discovery of Macrocyclic Peptides Targeting a Protein by the RaPID System” (ACS Central Science, 2025).
